The NIST ThermoML archive (doi:10.1021/je3005479)

Columns and labels:
[1] = Liquid; for speed of sound / kinematic viscosity: 83.07 kPa; for speed of sound: Pulse-echo method; for mass density: 87.07 kPa, Vibrating tube method; for kinematic viscosity: Capillary tube (Ostwald / Ubbelohde) method
[2] = refractive index (Na D-line) (dimensionless); conditions: 83.07 kPa, Liquid, Standard Abbe refractometry

CC(C)C1CC(C(C)C)CC(C(C)C)C1 (stereo not drawn) [1,3,5-triisopropylcyclohexane]
Conditions | kinematic viscosity, [1] [m2/s] | mass density, [1] [kg/m3] | refractive index, [2] | speed of sound, [1] [m/s]
278.15 K | – | 837.78 | – | 1405.7
283.15 K | – | 834.14 | – | 1385
288.15 K | – | 830.52 | – | 1364.8
293.15 K | 7.66e-06 | 826.89 | 1.4571 | 1344.8
298.15 K | 6.27e-06 | 823.27 | 1.4547 | 1325
303.15 K | 5.22e-06 | 819.64 | 1.4525 | 1305.5
308.15 K | 4.43e-06 | 816.02 | – | 1286.3
313.15 K | 3.81e-06 | 812.39 | – | 1267.3
318.15 K | 3.32e-06 | 808.76 | – | 1248.6
323.15 K | 2.9e-06 | 805.12 | – | 1230
328.15 K | 2.58e-06 | 801.49 | – | 1211.7
333.15 K | 2.32e-06 | 797.85 | – | 1193.6
338.15 K | 2.09e-06 | 794.21 | – | 1175.6
343.15 K | 1.9e-06 | 790.57 | – | 1158
348.15 K | 1.74e-06 | – | – | –
353.15 K | 1.6e-06 | – | – | –
358.15 K | 1.48e-06 | – | – | –
363.15 K | 1.37e-06 | – | – | –
368.15 K | 1.28e-06 | – | – | –
373.15 K | 1.19e-06 | – | – | –
